Data as given in ChEMBL document CHEMBL1201862, “PubChem BioAssay data set” (2004).
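How tested: cells in 96-well plates exposed to compound for 48 hours at five concentrations. GI50 marks 50% less growth.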 Activity calls are given as the source filed them. No stated cut-off is given here; in the data, active = GI50 up to about 1.1 µM and inactive = higher. Where a SMILES comes first, the peptide text is derived from it. [ ]: non-standard residue; d: D form. The star is where a group is joined. ξ: configuration not given here. ξD = NC(CC(=O)O)C(=O)O; Boc = CC(C)(C)OC(=O)*; Aib = CC(C)(N)C(=O)O; OBn = c1ccc(CO*)cc1

What was measured:
Assay in all cases: DTP human tumour cell line panel, 48 h
[1] = tested on: SR
[2] = tested on: HT-29
[3] = tested on: A549
[4] = tested on: U-251
[5] = tested on: RPMI-8226
[6] = tested on: OVCAR-5
[7] = tested on: K562
[8] = tested on: SK-MEL-28
[9] = tested on: MDA-N
[10] = tested on: UO-31
[11] = tested on: HL-60
[12] = tested on: MDA-MB-231
[13] = tested on: A498
[14] = tested on: OVCAR-3
[15] = tested on: SN12C
[16] = tested on: OVCAR-4
[17] = tested on: DU-145
[18] = tested on: LOX IMVI
[19] = tested on: SK-OV-3

Measured: GI50

O=C(CC(=O)n1nc(-c2ccccc2)c(/N=N/c2ccccc2C(=O)O)c1-c1ccccc1)Nc1ccc(Cl)cc1
inactive: [1] 11.6 µM | [2] 34.2 µM | [3] 34.1 µM | [4] 19.2 µM | [5] 20.4 µM | [6] 43 µM | [7] 25.6 µM | [8] 52.8 µM | [9] 36.1 µM | [10] 15.5 µM | [11] 10.2 µM | [12] 33.3 µM

CCOC(=O)/C=C(/C(=O)OCC)n1c(=O)c(C)cn(C2CC(N=[N+]=[N-])C(CO)O2)c1=O (configuration not stated)
inactive: [13] 44.1 µM | [14] 19.5 µM | [2] 35.7 µM | [3] 33.9 µM | [4] 18 µM | [5] 17.4 µM | [6] > 100 µM | [15] 37.2 µM | [16] 32.6 µM | [7] 1.86 µM | [8] 29.4 µM | [17] 43.5 µM | [9] 43 µM | [18] 27.5 µM | [10] 46.6 µM | [11] 2.31 µM | [12] 20.7 µM | [19] > 100 µM

O=C(O)/C(=C\c1ccccc1)Cc1ccccc1
inactive: [13] > 100 µM | [14] > 100 µM | [2] > 100 µM | [3] > 100 µM | [4] > 100 µM | [5] > 100 µM | [6] > 100 µM | [15] > 100 µM | [16] > 100 µM | [7] > 100 µM | [8] > 100 µM | [17] > 100 µM | [9] > 100 µM | [18] > 100 µM | [10] > 100 µM | [11] > 100 µM | [12] > 100 µM | [19] > 100 µM

COc1ccc(NC(=O)/C(=N\NC(=O)C[n+]2ccccc2)c2c(O)c3ccc(O)cc3oc2=O)c([N+](=O)[O-])c1
inactive: [13] 75.7 µM | [14] > 100 µM | [2] > 100 µM | [3] > 100 µM | [4] > 100 µM | [5] > 100 µM | [6] > 100 µM | [15] > 100 µM | [16] > 100 µM | [7] > 100 µM | [8] > 100 µM | [17] > 100 µM | [9] > 100 µM | [18] > 100 µM | [10] > 100 µM | [11] > 100 µM | [12] > 100 µM | [19] > 100 µM

O=C1Nc2ccccc2C(=O)/C1=C/NC(=S)NCc1ccccc1
inactive: [14] > 100 µM | [2] > 100 µM | [3] > 100 µM | [4] > 100 µM | [6] > 100 µM | [15] > 100 µM | [8] > 100 µM | [17] > 100 µM | [9] > 100 µM | [18] > 100 µM | [10] > 100 µM | [11] > 100 µM | [12] > 100 µM | [19] > 100 µM

CC(C)(C)OC(=O)NC(CC(=O)OCc1ccccc1)C(=O)NC(C)(C)C(N)=O (configuration not stated) (Boc-[ξD](OBn)-[Aib]-NH2)
inactive: [13] > 100 µM | [14] > 100 µM | [2] > 100 µM | [3] > 100 µM | [4] > 100 µM | [5] > 100 µM | [6] > 100 µM | [15] > 100 µM | [16] > 100 µM | [7] > 100 µM | [8] > 100 µM | [17] > 100 µM | [9] > 100 µM | [18] > 100 µM | [10] > 100 µM | [12] > 100 µM | [19] > 100 µM

O=S1(=O)OCCOS(=O)(=O)C1Cc1nc2ccccc2[nH]1
inactive: [14] 45.8 µM | [1] 28.6 µM | [2] 51.2 µM | [3] 44.6 µM | [4] 38.6 µM | [5] 34.3 µM | [6] > 100 µM | [15] 35.2 µM | [16] 44.2 µM | [7] 34.5 µM | [8] 97.1 µM | [17] > 100 µM | [9] 22.3 µM | [18] 14.5 µM | [10] 75.7 µM | [11] 22.5 µM | [12] 43 µM

COCOc1cc(OC)ccc1C/C(=N/O)C(=O)OC
inactive: [14] > 100 µM | [2] > 100 µM | [3] > 100 µM | [4] > 100 µM | [6] > 100 µM | [15] > 100 µM | [16] > 100 µM | [7] > 100 µM | [8] > 100 µM | [17] > 100 µM | [9] > 100 µM | [18] > 100 µM | [10] > 100 µM | [11] > 100 µM | [12] > 100 µM | [19] > 100 µM

COC(=O)C(Cc1ccc(Oc2cc(CC(NC(=O)c3ccccc3)C(=O)OC)ccc2OC)cc1)NC(=O)c1ccccc1 (configuration not stated)
inactive: [13] 46.3 µM | [14] 24.7 µM | [2] 26.6 µM | [3] 25.7 µM | [4] 32.8 µM | [5] 3.03 µM | [6] > 100 µM | [15] 6.64 µM | [16] 26.4 µM | [7] 2.01 µM | [8] 8.49 µM | [17] 16.9 µM | [9] 14.2 µM | [18] 8.26 µM | [10] 9.59 µM | [11] 3.82 µM | [12] 21.9 µM | [19] > 84.9 µM

CC(/C=N/N=C1NCCCN1)=N\N=C1NCCCN1
inactive: [14] > 100 µM | [1] > 100 µM | [2] > 100 µM | [3] > 100 µM | [4] > 100 µM | [5] > 100 µM | [6] > 100 µM | [15] > 100 µM | [16] > 100 µM | [7] > 100 µM | [8] > 100 µM | [9] > 100 µM | [18] > 100 µM | [10] > 100 µM | [12] > 100 µM | [19] > 100 µM

CC1(C)CC(=O)C(=CNc2nc(-c3cccc([N+](=O)[O-])c3)cs2)C(=O)C1
inactive: [13] 13.8 µM | [14] 29 µM | [2] 17 µM | [3] 66.1 µM | [4] 19.6 µM | [5] 17.9 µM | [6] 46.3 µM | [15] 18.1 µM | [16] 27.5 µM | [7] 16.6 µM | [17] 29.4 µM | [9] 17.8 µM | [18] 13.7 µM | [10] 25.6 µM | [11] 7.52 µM | [12] 18.5 µM | [19] 32.7 µM

O=c1[nH]c2ccc(Cl)cc2c2oc(-c3ccccc3)nc12
inactive: [13] 21.3 µM | [14] 21.2 µM | [1] 21 µM | [2] 83.9 µM | [3] 22.1 µM | [4] 20.7 µM | [5] 26 µM | [6] 52.1 µM | [15] 21.7 µM | [16] 18.1 µM | [7] 72.6 µM | [9] 45.7 µM | [18] 32.5 µM | [10] 22.1 µM | [12] 19.3 µM | [19] 24.2 µM

CC(=O)OCC(C)C1=C(OC(C)=O)C(=O)C2(C)C/C=C(/C)CC/C=C(\C)CCC(OC(C)=O)C(C)CCC12 (configuration not stated)
inactive: [1] 17.9 µM | [2] 17.8 µM | [4] 17.1 µM | [5] 14.3 µM | [6] 12.8 µM | [15] 20.1 µM | [16] 17.4 µM | [7] 13.3 µM | [8] 17.3 µM | [17] 20.1 µM | [9] 17.1 µM | [18] 16.9 µM | [10] 16.8 µM | [11] 10.9 µM | [12] 14.3 µM

COC(=O)C1=COC2OC3C(C(C)O)C(=O)OC34C=CC1C24 (configuration not stated)
inactive: [13] 98.6 µM | [14] 29.5 µM | [2] 44 µM | [3] > 100 µM | [4] 60 µM | [5] 29.1 µM | [6] 51.9 µM | [15] 50.1 µM | [16] > 100 µM | [7] 32.2 µM | [8] 31 µM | [17] 57.1 µM | [9] 29.6 µM | [18] 47.3 µM | [10] 74.6 µM | [11] 15.5 µM | [12] > 100 µM | [19] 59.7 µM

CCOC(=O)c1cnn2c1ncc1c(=O)n(NC(N)=O)ccc12
inactive: [13] > 100 µM | [14] > 100 µM | [2] > 100 µM | [3] > 100 µM | [4] > 100 µM | [6] > 100 µM | [15] > 100 µM | [16] > 100 µM | [8] > 100 µM | [17] > 100 µM | [9] > 100 µM | [18] > 100 µM | [10] > 100 µM | [11] > 100 µM | [12] > 100 µM | [19] > 100 µM

Clc1cc(N/N=C(/c2ccccc2)c2ncccn2)ncn1
inactive: [14] 20.2 µM | [1] 30.2 µM | [2] 2.58 µM | [3] 26 µM | [4] 31.8 µM | [5] 16.5 µM | [6] 85.5 µM | [15] 29.2 µM | [16] 22.1 µM | [7] 9.1 µM | [8] 36.9 µM | [17] 39.2 µM | [9] 62.8 µM | [10] 19.5 µM | [12] 20.2 µM | [19] 19.1 µM
